From patent publication US6750213B2, “Estrogen receptor modulators” (Merck & Co., Inc., priority 2000, dated 2004)
pEC50: −log10 of the molar value.

Test system: MCF-7 cells
Assay: MCF-7 Estrogen Dependent Proliferation Assay
Assay type: cell-based
Settings: Homo sapiens, MCF7, addition to Estrogen Depleted Media (EDM), read-out: EC50 of stimulation of growth of MCF-7 cells
Text: MCF-7 cells (ATCC #HTB-22) are human mammary gland adenocarcinoma cells that require estrogen for growth. The growth media (GM) for the MCF-7 cells is Minimum Essential Media (without phenol red) supplemented with fetal bovine serum(FBS) to 10%. The FBS serves as the sole source of estrogen and this GM supports the full growth of the cells and is used for the routine growth of the cell cultures. When MCF-7 cells are placed in a media in which 10% Charcoal-Dextran treated fetal bovine serum (CD-FBS) is substituted for FBS, the cells will cease to divide but will remain viable. […] The addition of estradiol to EDM stimulates the growth of the MCF-7 cells in a dose dependent manner with an EC50 of 2 pM. Growing MCF-7 cells are washed several times with EDM and the cultures then maintained in EDM for a minimum of 6 days in order to deplete the cells of endogenous estrogen. […] At this point, the culture supernatants are aspirated, the cells washed 2×with PBS, the wash solution aspirated and the protein content of each well determined. Each drug dilution is evaluated on a minimum of 5 wells and the range of dilution of the test compounds in the assay is […] to 1000 nM. […] The assay is terminated at day 8-10 when the appropriate controls reach 80-90% confluency and the protein content of each well is determined as above.

Molecule `C[C@]12CC[C@@H]3c4ccc(O)cc4CC[C@H]3[C@@H]1CC[C@@H]2O` [estradiol] has a pEC50 of 11.70.
